# Patent US11969428B2, “Methods and pharmaceutical compositions for treating lymphoid malignancy” (priority 2011, dated 2024)
# Columns and labels:
# [1] = target: T1, AKT2 (Homo sapiens, UniProt P31751); experiment: Ambit KinomeScan screening; type: binding; settings: CAL-130 10 μM
# T1 construct: purchased Ambit (KinomeScan screening)
# Protocol: (§1) CAL-130 (10 μM) was evaluated for its ability to prevent tagged kinases from interacting with immobilized “bait” ligand (Karaman et al., 2008). Results are reported as “% of control binding”, where lower numbers indicate stronger interactions with the tagged kinase. Values of >35% are considered “no hits”. PI3Kδ had the lowest percentage of control binding at 0.2% followed by PI3Kγ at 3.2% (See Table 1 below). These values indicate a high probability of a potent interaction. 353 kinases were assessed in the screen (Table 2).
# [2] = target: T2, ASK1 (Homo sapiens, UniProt Q99683); experiment: Ambit KinomeScan screening; type: binding; settings: CAL-130 10 μM
# T2 construct: purchased Ambit (KinomeScan screening service)
# Protocol: as §1
# [3] = target: T3, AURKB (Homo sapiens, UniProt Q96GD4); experiment: Ambit KinomeScan screening; type: binding; settings: CAL-130 10 μM
# T3 construct: purchased Ambit (KinomeScan screening service)
# Protocol: as §1
# [4] = target: T4, BMPR1B (Homo sapiens, UniProt O00238); experiment: Ambit KinomeScan screening; type: binding; settings: CAL-130 10 μM
# T4 construct: purchased Ambit (KinomeScan screening service)
# Protocol: as §1
# [5] = target: T5, BTK (Homo sapiens, UniProt Q06187); experiment: Ambit KinomeScan screening; type: binding; settings: CAL-130 10 μM
# T5 construct: unspecified tag ("tagged kinases"); purchased Ambit (KinomeScan screening)
# Protocol: as §1
# [6] = target: T6, CAMK2D (Homo sapiens, UniProt Q13557); experiment: Ambit KinomeScan screening; type: binding; settings: CAL-130 10 μM
# T6 construct: purchased Ambit (KinomeScan screening)
# Protocol: as §1
# [7] = target: T7, CDKL2 (Homo sapiens, UniProt Q92772); experiment: Ambit KinomeScan screening; type: binding; settings: CAL-130 10 μM
# T7 construct: purchased Ambit (KinomeScan screening service)
# Protocol: as §1
# [8] = target: T8, CDKL5 (Homo sapiens, UniProt O76039); experiment: Ambit KinomeScan screening; type: binding; settings: CAL-130 10 μM
# T8 construct: purchased Ambit (KinomeScan screening service)
# Protocol: as §1
# [9] = target: T9, DAPK1 (Homo sapiens, UniProt P53355); experiment: Ambit KinomeScan screening; type: binding; settings: CAL-130 10 μM
# T9 construct: purchased Ambit (KinomeScan screening service)
# Protocol: as §1
# [10] = target: T10, EGFR(E746-A750DEL) (Homo sapiens, UniProt P00533, DEL746-750); experiment: Ambit KinomeScan screening; type: binding; settings: CAL-130 10 μM
# T10 construct: unspecified tag; purchased Ambit (KinomeScan screening service)
# Protocol: as §1
# [11] = target: T11, EPHA3 (Homo sapiens, UniProt P29320); experiment: Ambit KinomeScan screening; type: binding; settings: CAL-130 10 μM
# T11 construct: purchased Ambit (KinomeScan screening service)
# Protocol: as §1
# [12] = target: T12, ERK3 (Homo sapiens, UniProt Q16659); experiment: Ambit KinomeScan screening; type: binding; settings: CAL-130 10 μM
# T12 construct: unspecified tag ("tagged kinases"); purchased Ambit (KinomeScan screening service)
# Protocol: as §1
# [13] = target: T13, ERK8 (Homo sapiens, UniProt Q8TD08); experiment: Ambit KinomeScan screening; type: binding; settings: CAL-130 10 μM
# T13 construct: unspecified tag ("tagged kinases"); purchased Ambit (KinomeScan screening service)
# Protocol: as §1
# [14] = target: T14, FGFR2 (Homo sapiens, UniProt P21802); experiment: Ambit KinomeScan screening; type: binding; settings: CAL-130 10 μM
# T14 construct: unspecified tag; purchased Ambit (KinomeScan screening service)
# Protocol: as §1
# [15] = target: T15, HIPK3 (Homo sapiens, UniProt Q9H422); experiment: Ambit KinomeScan screening; type: binding; settings: CAL-130 10 μM
# T15 construct: Ambit (KinomeScan screening)
# Protocol: as §1
# [16] = target: T16, IKK-[…] (Homo sapiens, UniProt Q14164); experiment: Ambit KinomeScan screening; type: binding; settings: CAL-130 10 μM
# T16 construct: Ambit (KinomeScan screening)
# Protocol: as §1
# [17] = target: T17, JAK3(JH1domain) (Homo sapiens, UniProt P52333); experiment: Ambit KinomeScan screening; type: binding; settings: CAL-130 10 μM
# T17 construct: JAK3(JH1domain); purchased Ambit (KinomeScan screening)
# Protocol: as §1
# [18] = target: T18, KIT(V559D) (Homo sapiens, UniProt P10721, V559D); experiment: Ambit KinomeScan screening; type: binding; settings: CAL-130 10 μM
# T18 construct: purchased Ambit (KinomeScan screening)
# Protocol: as §1
# [19] = target: T19, LIMK1 (Homo sapiens, UniProt P53667); experiment: Ambit KinomeScan screening; type: binding; settings: CAL-130 10 μM
# T19 construct: unspecified tag ('tagged kinases'); purchased Ambit (KinomeScan screening service)
# Protocol: as §1
# [20] = target: T20, MERTK (Homo sapiens, UniProt Q12866); experiment: Ambit KinomeScan screening; type: binding; settings: CAL-130 10 μM
# T20 construct: purchased Ambit (KinomeScan screening)
# Protocol: as §1
# [21] = target: T21, MKNK1 (Homo sapiens, UniProt Q9BUB5); experiment: Ambit KinomeScan screening; type: binding; settings: CAL-130 10 μM
# T21 construct: unspecified tag ('tagged kinases'); purchased Ambit (KinomeScan screening)
# Protocol: as §1
# [22] = target: T22, MYLK (Homo sapiens, UniProt Q15746); experiment: Ambit KinomeScan screening; type: binding; settings: CAL-130 10 μM
# T22 construct: unspecified tag; purchased Ambit (KinomeScan screening panel)
# Protocol: as §1
# [23] = target: T23, NEK9 (Homo sapiens, UniProt Q8TD19); experiment: Ambit KinomeScan screening; type: binding; settings: CAL-130 10 μM
# T23 construct: purchased Ambit (KinomeScan screening service)
# Protocol: as §1
# [24] = target: T24, PRKCQ (Homo sapiens, UniProt Q04759); experiment: Ambit KinomeScan screening; type: binding; settings: CAL-130 10 μM
# T24 construct: purchased Ambit (KinomeScan screening service)
# Protocol: as §1
# [25] = target: T25, QSK (Homo sapiens, UniProt Q9Y2K2); experiment: Ambit KinomeScan screening; type: binding; settings: CAL-130 10 μM
# T25 construct: tag (kind not specified); purchased Ambit (KinomeScan screening service)
# Protocol: as §1
# [26] = target: T26, RET(M918T) (Homo sapiens, UniProt P07949, M918T); experiment: Ambit KinomeScan screening; type: binding; settings: CAL-130 10 μM
# T26 construct: tag (kind not specified); purchased Ambit (KinomeScan screening service)
# Protocol: as §1
# [27] = target: T27, SYK (Homo sapiens, UniProt P43405); experiment: Ambit KinomeScan screening; type: binding; settings: CAL-130 10 μM
# T27 construct: tag (kind not specified); purchased Ambit (KinomeScan screening service)
# Protocol: as §1
# [28] = target: T28, TLK1 (Homo sapiens, UniProt Q9UKI8); experiment: Ambit KinomeScan screening; type: binding; settings: CAL-130 10 μM
# T28 construct: unspecified tag (tagged kinase); purchased Ambit (KinomeScan screening)
# Protocol: as §1
# [29] = target: T29, TNK1 (Homo sapiens, UniProt Q13470); experiment: Ambit KinomeScan screening; type: binding; settings: CAL-130 10 μM
# T29 construct: unspecified tag (tagged kinase); purchased Ambit (KinomeScan screening)
# Protocol: as §1
# [30] = target: T30, ULK2 (Homo sapiens, UniProt Q8IYT8); experiment: Ambit KinomeScan screening; type: binding; settings: CAL-130 10 μM
# T30 construct: tag, kind not specified; purchased Ambit (KinomeScan screening service)
# Protocol: as §1
# [31] = target: T31, YANK3 (Homo sapiens, UniProt Q86UX6); experiment: Ambit KinomeScan screening; type: binding; settings: CAL-130 10 μM
# T31 construct: purchased Ambit (KinomeScan screening service)
# Protocol: as §1
# [32] = target: T32, YSK1 (Homo sapiens, UniProt O00506); experiment: Ambit KinomeScan screening; type: binding; settings: CAL-130 10 μM
# T32 construct: purchased Ambit (KinomeScan screening service)
# Protocol: as §1
# [33] = Plasma glucose and insulin levels; type: in vivo, mouse; settings: single oral dose 10 mg kg−1
# Protocol: Plasma glucose and insulin levels were determined following a single oral dose of CAL-130 (10 mg kg^−1). Blood was collected into K2EDTA tubes by cardiac puncture at baseline and 0, 2, 4, and 8 hours post-dose, and plasma samples frozen at −80° C. until analysis. The insulin and glucose levels were determined by using an Ultra Sensitive Mouse Insulin ELISA Kit (Crystall Chem Inc.) or WaveSense Presto Blood Glucose Monitoring System (Agamatrix Inc., Boston, MA), respectively.
# T12 sequence (Q16659 whole entry): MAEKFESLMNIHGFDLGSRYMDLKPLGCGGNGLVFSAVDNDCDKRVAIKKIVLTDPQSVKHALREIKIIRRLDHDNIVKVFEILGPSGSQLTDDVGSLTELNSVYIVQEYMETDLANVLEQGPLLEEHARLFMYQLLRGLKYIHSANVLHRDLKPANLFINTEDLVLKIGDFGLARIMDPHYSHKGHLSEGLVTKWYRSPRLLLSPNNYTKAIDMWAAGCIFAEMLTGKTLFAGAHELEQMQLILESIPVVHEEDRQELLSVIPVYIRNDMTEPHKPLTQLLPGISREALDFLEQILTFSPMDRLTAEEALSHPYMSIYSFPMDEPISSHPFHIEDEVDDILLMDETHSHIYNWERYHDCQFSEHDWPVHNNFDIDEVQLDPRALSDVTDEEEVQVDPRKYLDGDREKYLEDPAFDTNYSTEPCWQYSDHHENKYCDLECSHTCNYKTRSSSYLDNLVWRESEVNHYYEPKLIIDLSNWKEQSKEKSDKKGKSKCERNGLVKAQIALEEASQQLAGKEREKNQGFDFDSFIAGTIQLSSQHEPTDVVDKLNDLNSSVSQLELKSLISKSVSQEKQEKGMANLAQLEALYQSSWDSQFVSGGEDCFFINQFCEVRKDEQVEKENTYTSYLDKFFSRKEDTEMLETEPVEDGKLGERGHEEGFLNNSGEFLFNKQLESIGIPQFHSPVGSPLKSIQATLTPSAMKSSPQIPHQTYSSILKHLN
# T8 sequence (O76039 whole entry): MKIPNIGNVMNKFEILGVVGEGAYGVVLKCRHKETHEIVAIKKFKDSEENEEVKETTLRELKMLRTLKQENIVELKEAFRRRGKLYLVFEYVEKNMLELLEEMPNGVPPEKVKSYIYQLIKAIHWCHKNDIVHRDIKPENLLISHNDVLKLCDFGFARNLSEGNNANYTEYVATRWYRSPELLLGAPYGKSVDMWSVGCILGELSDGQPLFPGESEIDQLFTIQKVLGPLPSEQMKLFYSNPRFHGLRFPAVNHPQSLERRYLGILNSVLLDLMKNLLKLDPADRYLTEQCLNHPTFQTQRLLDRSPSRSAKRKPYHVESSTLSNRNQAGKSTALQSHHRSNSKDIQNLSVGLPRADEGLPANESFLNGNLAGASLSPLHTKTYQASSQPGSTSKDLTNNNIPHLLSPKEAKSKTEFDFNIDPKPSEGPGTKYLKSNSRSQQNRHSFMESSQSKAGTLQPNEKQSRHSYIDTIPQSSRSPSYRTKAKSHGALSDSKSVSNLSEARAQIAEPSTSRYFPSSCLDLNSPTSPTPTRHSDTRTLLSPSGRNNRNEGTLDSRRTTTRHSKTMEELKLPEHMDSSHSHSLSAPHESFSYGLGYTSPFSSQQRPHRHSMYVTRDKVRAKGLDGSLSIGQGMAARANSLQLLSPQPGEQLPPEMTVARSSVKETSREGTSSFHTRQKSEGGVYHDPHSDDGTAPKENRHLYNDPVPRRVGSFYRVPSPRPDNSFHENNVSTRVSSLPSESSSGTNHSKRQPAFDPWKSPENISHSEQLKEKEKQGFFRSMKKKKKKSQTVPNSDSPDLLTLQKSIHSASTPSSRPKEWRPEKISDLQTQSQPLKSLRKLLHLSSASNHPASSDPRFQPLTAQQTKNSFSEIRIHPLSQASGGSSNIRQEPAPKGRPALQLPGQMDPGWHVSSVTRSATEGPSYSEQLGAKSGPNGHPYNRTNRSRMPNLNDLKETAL
# T5 sequence (Q06187 whole entry): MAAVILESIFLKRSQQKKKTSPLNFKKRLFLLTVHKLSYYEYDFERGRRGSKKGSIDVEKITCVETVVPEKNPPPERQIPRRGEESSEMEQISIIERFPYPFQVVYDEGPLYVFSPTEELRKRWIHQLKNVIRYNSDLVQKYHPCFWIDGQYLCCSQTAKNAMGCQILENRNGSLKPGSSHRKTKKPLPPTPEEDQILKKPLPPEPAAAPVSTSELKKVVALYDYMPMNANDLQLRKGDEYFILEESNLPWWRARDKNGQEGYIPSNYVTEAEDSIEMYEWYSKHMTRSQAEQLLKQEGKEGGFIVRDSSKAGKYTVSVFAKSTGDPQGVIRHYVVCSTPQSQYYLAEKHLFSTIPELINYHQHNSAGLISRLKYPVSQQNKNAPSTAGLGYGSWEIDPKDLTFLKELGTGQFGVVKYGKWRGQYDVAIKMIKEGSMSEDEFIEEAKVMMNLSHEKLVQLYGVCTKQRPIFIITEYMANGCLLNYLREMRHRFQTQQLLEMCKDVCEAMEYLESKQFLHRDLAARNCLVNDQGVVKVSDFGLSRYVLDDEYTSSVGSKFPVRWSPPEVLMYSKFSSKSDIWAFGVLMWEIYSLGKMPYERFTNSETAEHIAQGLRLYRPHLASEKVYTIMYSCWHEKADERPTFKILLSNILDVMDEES
# T11 sequence (P29320 21-983): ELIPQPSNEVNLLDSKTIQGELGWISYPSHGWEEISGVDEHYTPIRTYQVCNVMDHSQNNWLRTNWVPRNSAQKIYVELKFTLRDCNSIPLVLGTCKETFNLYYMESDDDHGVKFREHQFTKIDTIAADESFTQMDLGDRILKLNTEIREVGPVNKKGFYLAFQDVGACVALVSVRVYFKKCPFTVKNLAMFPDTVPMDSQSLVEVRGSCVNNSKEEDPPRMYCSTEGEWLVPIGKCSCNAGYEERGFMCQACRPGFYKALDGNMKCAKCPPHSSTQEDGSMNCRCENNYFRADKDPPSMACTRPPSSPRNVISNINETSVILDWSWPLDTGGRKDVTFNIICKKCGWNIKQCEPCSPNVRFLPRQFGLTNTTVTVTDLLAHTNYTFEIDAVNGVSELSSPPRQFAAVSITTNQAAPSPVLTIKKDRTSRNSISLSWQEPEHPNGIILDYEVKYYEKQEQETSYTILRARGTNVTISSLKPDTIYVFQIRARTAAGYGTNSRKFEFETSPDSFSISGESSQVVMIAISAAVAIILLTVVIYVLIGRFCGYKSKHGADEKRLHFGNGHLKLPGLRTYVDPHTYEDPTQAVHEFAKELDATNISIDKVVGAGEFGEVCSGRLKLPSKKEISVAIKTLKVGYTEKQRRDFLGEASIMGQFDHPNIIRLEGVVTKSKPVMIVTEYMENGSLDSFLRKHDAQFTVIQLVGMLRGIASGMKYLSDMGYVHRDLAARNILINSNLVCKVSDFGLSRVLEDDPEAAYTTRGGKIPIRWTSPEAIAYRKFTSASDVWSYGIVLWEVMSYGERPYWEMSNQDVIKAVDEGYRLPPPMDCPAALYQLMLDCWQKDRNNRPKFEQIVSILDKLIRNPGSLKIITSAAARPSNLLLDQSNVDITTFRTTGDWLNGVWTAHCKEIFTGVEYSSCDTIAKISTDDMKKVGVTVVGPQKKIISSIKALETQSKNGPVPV
# T3 sequence (Q96GD4 whole entry): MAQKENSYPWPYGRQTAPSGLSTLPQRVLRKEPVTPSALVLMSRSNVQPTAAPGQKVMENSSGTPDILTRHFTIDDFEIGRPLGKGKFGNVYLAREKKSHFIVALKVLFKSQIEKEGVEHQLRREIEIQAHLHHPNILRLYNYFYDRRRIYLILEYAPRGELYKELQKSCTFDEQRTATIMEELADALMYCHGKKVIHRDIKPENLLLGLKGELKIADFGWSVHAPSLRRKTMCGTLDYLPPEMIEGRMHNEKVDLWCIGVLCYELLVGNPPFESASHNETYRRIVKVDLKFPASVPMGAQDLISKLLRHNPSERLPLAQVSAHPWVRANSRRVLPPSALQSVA
# T25 sequence (Q9Y2K2 whole entry): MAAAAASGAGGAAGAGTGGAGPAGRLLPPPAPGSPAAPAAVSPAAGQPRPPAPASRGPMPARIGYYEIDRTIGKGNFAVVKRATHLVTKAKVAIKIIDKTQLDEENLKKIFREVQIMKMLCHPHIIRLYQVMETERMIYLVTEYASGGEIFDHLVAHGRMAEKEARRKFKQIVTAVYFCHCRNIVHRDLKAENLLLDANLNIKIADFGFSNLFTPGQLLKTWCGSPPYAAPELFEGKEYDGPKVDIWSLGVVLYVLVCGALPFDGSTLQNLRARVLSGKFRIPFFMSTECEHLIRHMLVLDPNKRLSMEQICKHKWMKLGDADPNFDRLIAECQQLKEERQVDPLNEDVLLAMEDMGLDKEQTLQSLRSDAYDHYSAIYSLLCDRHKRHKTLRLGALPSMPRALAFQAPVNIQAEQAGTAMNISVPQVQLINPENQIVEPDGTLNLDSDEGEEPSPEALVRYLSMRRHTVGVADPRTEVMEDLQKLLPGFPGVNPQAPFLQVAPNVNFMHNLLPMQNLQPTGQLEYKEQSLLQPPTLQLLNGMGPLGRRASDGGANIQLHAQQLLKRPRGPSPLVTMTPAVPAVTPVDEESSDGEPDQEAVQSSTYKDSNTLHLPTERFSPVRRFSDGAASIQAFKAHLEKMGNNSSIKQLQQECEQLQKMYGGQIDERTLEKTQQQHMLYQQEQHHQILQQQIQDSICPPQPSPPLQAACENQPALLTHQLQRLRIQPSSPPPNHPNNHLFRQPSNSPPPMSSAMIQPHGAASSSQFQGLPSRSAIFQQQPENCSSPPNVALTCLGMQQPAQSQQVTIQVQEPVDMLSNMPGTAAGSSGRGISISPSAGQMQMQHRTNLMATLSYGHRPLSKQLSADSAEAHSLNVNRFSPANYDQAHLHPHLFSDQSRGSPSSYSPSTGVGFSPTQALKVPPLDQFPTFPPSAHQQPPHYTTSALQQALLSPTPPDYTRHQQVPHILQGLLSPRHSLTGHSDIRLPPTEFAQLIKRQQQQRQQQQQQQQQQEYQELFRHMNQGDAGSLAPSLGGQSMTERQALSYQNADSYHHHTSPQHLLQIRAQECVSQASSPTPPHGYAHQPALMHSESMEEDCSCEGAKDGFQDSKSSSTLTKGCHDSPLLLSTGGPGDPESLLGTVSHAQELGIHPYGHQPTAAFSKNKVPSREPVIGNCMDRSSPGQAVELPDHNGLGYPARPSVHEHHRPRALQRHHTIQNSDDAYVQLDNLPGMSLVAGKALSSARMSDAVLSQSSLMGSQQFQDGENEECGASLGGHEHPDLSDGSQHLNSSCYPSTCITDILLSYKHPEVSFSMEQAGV
smiles,measurement,setting,value
Cc1ccccc1-n1c(C(C)Nc2nc(N)nc3nc[nH]c23)nc2cccc(C)c2c1=O (stereo not shown) [CAL-130],Percent of Control Binding,[1],100%
same,Percent of Control Binding,[2],100%
same,Percent of Control Binding,[3],100%
same,Percent of Control Binding,[4],100%
same,Percent of Control Binding,[5],100%
same,Percent of Control Binding,[6],100%
same,Percent of Control Binding,[7],100%
same,Percent of Control Binding,[8],100%
same,Percent of Control Binding,[9],100%
same,Percent of Control Binding,[10],100%
same,Percent of Control Binding,[11],100%
same,Percent of Control Binding,[12],100%
same,Percent of Control Binding,[13],100%
same,Percent of Control Binding,[14],100%
same,Percent of Control Binding,[15],100%
same,Percent of Control Binding,[16],100%
same,Percent of Control Binding,[17],100%
same,Percent of Control Binding,[18],100%
same,Percent of Control Binding,[19],100%
same,Percent of Control Binding,[20],100%
same,Percent of Control Binding,[21],100%
same,Percent of Control Binding,[22],100%
same,Percent of Control Binding,[23],100%
same,Percent of Control Binding,[24],100%
same,Percent of Control Binding,[25],100%
same,Percent of Control Binding,[26],100%
same,Percent of Control Binding,[27],100%
same,Percent of Control Binding,[28],100%
same,Percent of Control Binding,[29],100%
same,Percent of Control Binding,[30],100%
same,Percent of Control Binding,[31],100%
same,Percent of Control Binding,[32],100%
same,plasma glucose levels,[33],did not affect
same,plasma insulin levels,[33],did not affect
